Test results from ChEMBL document CHEMBL5604063, “ASAP - DENV-2 NS2B-NS3 protease fluorescence dose response” (2024).
“And” between values parts separate entries of the source, which are not always exact repeats. Equal entries are not always repeated.

Legend:
Genome polyprotein [1] = target: T1, Genome polyprotein (dengue virus type 2, UniProt P29990); format: functional, Thailand/16681/1984
Genome polyprotein [2] = target: T1, Genome polyprotein; format: functional, Thailand/16681/1984; remark: listed apart in the source

T1 sequence (P29990 1346-1475 limits assumed): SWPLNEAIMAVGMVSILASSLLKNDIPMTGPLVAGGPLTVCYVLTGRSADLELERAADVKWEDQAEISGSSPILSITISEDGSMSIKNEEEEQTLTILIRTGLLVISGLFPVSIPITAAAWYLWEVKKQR
T1 sequence (P29990 1476-2093 limits assumed): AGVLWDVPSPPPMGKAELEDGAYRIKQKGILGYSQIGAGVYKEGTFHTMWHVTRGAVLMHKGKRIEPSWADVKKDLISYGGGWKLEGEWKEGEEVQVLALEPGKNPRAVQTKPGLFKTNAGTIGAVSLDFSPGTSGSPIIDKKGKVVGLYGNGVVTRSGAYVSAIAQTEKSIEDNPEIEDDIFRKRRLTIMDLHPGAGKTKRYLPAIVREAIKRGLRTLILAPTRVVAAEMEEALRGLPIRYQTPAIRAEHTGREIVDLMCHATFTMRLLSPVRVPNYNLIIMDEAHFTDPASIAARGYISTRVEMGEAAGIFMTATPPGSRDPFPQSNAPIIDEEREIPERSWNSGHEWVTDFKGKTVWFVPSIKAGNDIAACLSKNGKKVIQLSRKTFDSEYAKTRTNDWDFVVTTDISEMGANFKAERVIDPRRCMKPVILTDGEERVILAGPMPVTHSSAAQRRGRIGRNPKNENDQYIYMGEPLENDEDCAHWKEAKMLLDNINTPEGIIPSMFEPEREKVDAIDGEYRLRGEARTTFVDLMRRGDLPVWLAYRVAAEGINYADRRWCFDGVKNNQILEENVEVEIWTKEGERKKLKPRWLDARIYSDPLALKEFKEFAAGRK

| SMILES | IC50 (Genome polyprotein [1]) | IC50 (Genome polyprotein [2]) |
| --- | --- | --- |
| N#C[C@]1(Nc2ccc3c(c2)CNC3)C(=O)Nc2ccccc21 | > 99.5 µM | > 100 µM |
| O=C(Nc1ccc2c(c1)CNC2)c1ccc2c(c1)NCCO2 | > 99.5 µM | > 100 µM |
| CCc1cc(C(=O)Nc2ccc3c(c2)CNC3)sc1-c1ccc(Cl)cc1 | > 99.5 µM | > 100 µM |
| C[C@@H](N)c1ccc(NC(=O)c2cc(Cl)cc3[nH]ncc23)cc1 | > 99.5 µM | > 100 µM |
| Cc1c(C(=O)Nc2cc(CCCN)ccn2)cc(C2CCC2)n1C | > 99.5 µM | > 100 µM |
| Cc1c(C(=O)Nc2cc(CCCN)ccn2)cc(C(C)C)n1C | > 99.5 µM | > 100 µM |
| CN(C(=O)c1cc(Cl)cc2[nH]ncc12)c1ccc2c(c1)CNC2 | > 99.5 µM | > 100 µM |
| O=C(Nc1ccc2c(c1)CNC2)c1ccccc1-n1cccc1 | > 99.5 µM | > 100 µM |
| CC(C)Cc1nc2c(C(=O)Nc3ccc4c(c3)CNC4)cc(Br)cc2[nH]1 | 56.2 µM | > 100 µM |
| O=C(Nc1ccc2c(c1)CNC2)c1cc(Cl)cc(-n2cccc2)c1 | > 99.5 µM | > 100 µM |
| O=C(Nc1ccc2c(c1)CNC2)c1ccn[nH]1 | > 99.5 µM | > 100 µM |
| Cc1cc(NC(=O)c2cc(C3CC3)n(C)c2C)ncc1S(N)(=O)=O | > 99.5 µM | > 100 µM |
| O=C(Nc1ccc2c(c1)CNC2)C1CCCCC1 | > 99.5 µM | > 100 µM |
| Cc1c(C(=O)NCc2ccc(CN)cc2)cc(C2CC2)n1C | > 99.5 µM | > 100 µM |
| NCc1cc(NC(=O)c2cc(Cl)cc(NC(=O)OCc3ccccc3)c2)cc(C2=CC[C@H](C(=O)O)CC2)c1 | > 99.5 µM | > 100 µM |
| NCc1cc(NC(=O)c2cc(Cl)cc(NC(=O)OCc3ccccc3)c2)cc(-c2csc(CC(=O)O)c2)c1 | 64.7 µM | > 100 µM |
| Cc1c(C(=O)Nc2cc(-c3ccccn3)c(Br)cn2)cc(C2CC2)n1C | > 99.5 µM | > 100 µM |
| CCOC(=O)N1CCC[C@H]1c1cccc(-c2ccc3[nH]c(C(=O)O)cc3c2)c1 | > 99.5 µM | > 100 µM |
| O=C(O)c1cc2cc(-c3cc(Cl)cc4ncccc34)ccc2[nH]1 | 41.5 µM | 50.9 µM |
| CNC(=O)[C@H](Nc1ccc2c(c1)CNC2)c1cccc2[nH]ncc12 | 81.3 µM | > 100 µM |
| NCc1nc2cc(Cl)ccc2n1Cc1ccc(-c2nn[nH]n2)cc1 | > 99.5 µM | > 100 µM |
| FC(F)(F)Oc1cc(Cl)cc2c(Cc3ccc(-c4nnn[nH]4)cc3)c[nH]c12 | 12.6 µM | 7.84 µM |

| SMILES | IC50 (Genome polyprotein [1]) | IC50 (Genome polyprotein [2]) |
| --- | --- | --- |
| CCCN1C(=O)[C@](C#N)(Nc2ccc3c(c2)CNC3)c2ccccc21 | > 99.5 µM | > 100 µM |
| Cc1c(C(=O)Nc2cc(-c3cnn(C)c3)ccn2)cc(C2CC2)n1C | > 99.5 µM | > 100 µM |
| N#Cc1cc(-c2ccc3[nH]c(C(=O)O)cc3c2)c2nc[nH]c2c1 | > 99.5 µM | > 100 µM |
| CCCc1sc(C(=O)Nc2ccc3c(c2)CNC3)cc1CC | > 99.5 µM | > 100 µM |
| Cc1c(C(=O)Nc2cc(C(N)=O)c3ccccc3n2)cc(C2CC2)n1C | > 99.5 µM | > 100 µM |
| O=C1Cc2c(cccc2C(=O)Nc2ccc3c(c2)CNC3)N1 | 11.8 µM and 17.4 µM and 20.7 µM | 45.6 µM and 19.1 µM |
| CNCc1ccc(NC(=O)c2cc(Cl)cc3[nH]ncc23)cc1 | > 99.5 µM | > 100 µM |
| Cc1c(C(=O)Nc2nccc3c2CNCC3)cc(C2CC2)n1C | > 99.5 µM | > 100 µM |
| Cc1c(C(=O)Nc2cc(CCCN)ccn2)cc(C2CCCCC2)n1C | > 99.5 µM | > 100 µM |
| O=C(Nc1ccc2c(c1)CNC2)c1cc(Br)cc2[nH]c(-c3ccccc3)nc12 | 2.73 µM and 2.34 µM | 5.95 µM and 6.13 µM |
| O=C(Nc1ccc2c(c1)CNCCC2)c1cc(Cl)cc2[nH]ncc12 | 42.5 µM | 62.4 µM and 45.8 µM |
| O=C(Nc1ccc2c(c1)CNC2)c1cncc(-c2ccccc2)c1 | > 99.5 µM | > 100 µM |
| O=C(O)C1CCC2(CC1)CC(Cc1c[nH]c3ccc(Cl)cc13)C2 (stereo unspecified) | 59.2 µM | 31.4 µM |
| N#Cc1ccc2[nH]cc(Cc3ccc(-c4nnn[nH]4)cc3)c2c1 | > 99.5 µM | 83.8 µM |
| O=C(Nc1ccc2c(c1)CNC2)c1ccnc(CO)c1 | > 99.5 µM | > 100 µM |
| O=C(Nc1ccc2c(c1)CNC2)c1c[nH]c2ncc(F)cc12 | > 99.5 µM | > 100 µM |
| Cc1c(C(=O)Nc2cc(C(=O)N(C)C)ccn2)cc(C2CC2)n1C | > 99.5 µM | > 100 µM |
| NCc1cc(NC(=O)c2cc(Cl)cc(NC(=O)OCc3ccccc3)c2)cc(-c2cccc(CC(=O)O)c2)c1 | > 99.5 µM | > 100 µM |
| O=C(Nc1ccc([C@H]2CCNC2)cc1)c1cc(Cl)cc2[nH]ncc12 | 87.8 µM | 97.3 µM |
| O=C(O)Cc1cc2c(c(Cc3c[nH]c4ccc(Cl)cc34)c1)OCC2 | > 99.5 µM | > 100 µM |
| CCOCCCN1Cc2ccc(NC(=O)c3cc(Cl)cc4[nH]ncc34)cc2C1 | > 99.5 µM | > 100 µM |
| O=C(O)c1cc2cc(-c3cc(Cl)c4[nH]c(=O)oc4c3)ccc2[nH]1 | 47.3 µM | 63.2 µM |

| SMILES | IC50 (Genome polyprotein [1]) | IC50 (Genome polyprotein [2]) |
| --- | --- | --- |
| O=C(Nc1ccc2c(c1)CNC2)c1cccc2[nH]ncc12 | > 99.5 µM | > 100 µM |
| O=C(c1cc(Cl)cc2[nH]ncc12)N1C[C@H]2CNC[C@H]2C1 | > 99.5 µM | > 100 µM |
| CNC(=O)[C@]1(Nc2ccc3c(c2)CNC3)C(=O)Nc2ccccc21 | > 99.5 µM | > 100 µM |
| Cn1nc(C(=O)Nc2ccc3c(c2)CNC3)c2cc(Br)ccc21 | 89.7 µM | > 100 µM |
| O=C(Nc1ccc2c(c1)CNC2)c1cc(C(F)(F)F)cc2[nH]ccc12 | > 99.5 µM | > 100 µM |
| CNC(=O)[C@H](Nc1ccc2c(c1)CNC2)c1cc(Cl)cc2[nH]ncc12 | > 99.5 µM | > 100 µM |
| NCc1cc(NC(=O)c2cc(Cl)cc(NC(=O)OCc3ccccc3)c2)cc(C2=CC[C@H](C(=O)O)C2)c1 | > 99.5 µM | > 100 µM |
| NCCCc1ccnc(NC(=O)c2csc(C3CC3)n2)c1 | > 99.5 µM | > 100 µM |
| O=C(Nc1ccc2c(c1)CCCN2)c1cc(Cl)cc2[nH]ncc12 | > 99.5 µM | > 100 µM |
| O=C(O)c1nccn2ncc(Cc3c[nH]c4ccc(Cl)cc34)c12 | > 99.5 µM | > 100 µM |
| O=C(Nc1ccc2c(c1)CNC2)c1ccncc1 | > 99.5 µM | > 100 µM |
| O=C(Nc1ccc2c(c1)CNC2)c1cc(=O)[nH]c2c(F)cccc12 | > 99.5 µM | > 100 µM |
| NCc1cccc([C@@H]2[C@H](C(=O)O)[C@H]2c2cc(N)cc(Cl)c2)c1 | > 99.5 µM | > 100 µM |
| O=C(Nc1ccc2c(c1)[C@H]1CC[C@H]2N1)c1cc(Cl)cc2[nH]ncc12 | > 99.5 µM | > 100 µM |
| COC(=O)c1cc(Br)cc2c(Cc3ccc(-c4nnn[nH]4)cc3)c[nH]c12 | 20.3 µM | 13.6 µM |
| O=C(NCc1ccc2c(c1)CNC2)c1cc(Cl)cc2[nH]ncc12 | > 99.5 µM | > 100 µM |
| O=C(Nc1ccc2c(c1)CCNCC2)c1cc(Cl)cc2[nH]ncc12 | 47.5 µM | > 100 µM |
| O=C(NCC1CCNCC1)c1cc(Cl)cc2[nH]ncc12 | > 99.5 µM | > 100 µM |
| O=C(Nc1ccc2c(c1)CNC2)c1cc(Br)cc2[nH]ncc12 | > 99.5 µM | > 100 µM |
| COC(=O)c1ccc2[nH]cc(Cc3ccc(-c4nnn[nH]4)cc3)c2c1 | > 99.5 µM | 72.4 µM |
| O=C(c1cc(Cl)cc2[nH]ncc12)N1CCC(C2CCNCC2)CC1 | > 99.5 µM | > 100 µM |
| O=C1NCc2ccc(NC(=O)c3cc(Cl)cc4[nH]ncc34)cc21 | > 99.5 µM | > 100 µM |

| SMILES | IC50 (Genome polyprotein [1]) | IC50 (Genome polyprotein [2]) |
| --- | --- | --- |
| O=C(Nc1ccc2c(n1)CNC2)c1cc(Cl)cc2[nH]ncc12 | > 99.5 µM | > 100 µM |
| Cc1ccc(NC(=O)c2cc(Cl)cc3[nH]ncc23)cc1CN | > 99.5 µM | > 100 µM |
| Cc1ccc(NC(=O)c2cc(Cl)cc3[nH]ncc23)cc1N | > 99.5 µM | > 100 µM |
| NC[C@H]1CC[C@H](NC(=O)c2cc(Cl)cc3[nH]ncc23)CC1 | > 99.5 µM | > 100 µM |
| CNC(=O)[C@]1(Nc2ccc3c(c2)CNC3)CCc2ccc(Cl)cc21 | > 99.5 µM | > 100 µM |
| O=C(Nc1ccc2c(c1)CNC2)c1cc(Br)cc2cccnc12 | > 99.5 µM | > 100 µM |
| O=C(Nc1ccc2c(c1)CN(C(=O)C(F)(F)F)C2)c1cc(Cl)cc2[nH]ncc12 | > 99.5 µM | > 100 µM |
| Clc1ccc2nc(C3CCOCC3)n(Cc3ccc4c(c3)CNC4)c2c1 | > 99.5 µM | > 100 µM |
| Nc1nccc(C(=O)Nc2ccc3c(c2)CNC3)n1 | > 99.5 µM | > 100 µM |
| O=C(Nc1cc(Cl)cc(-c2cc(C(=O)O)n(-c3ccc(F)cc3)n2)c1)OCc1ccccc1 | 17.5 µM | 10.6 µM |
| N[C@H]1CCCc2ccc(NC(=O)c3cc(Cl)cc4[nH]ncc34)cc21 | > 99.5 µM | > 100 µM |
| N[C@H]1Cc2ccc(NC(=O)c3cc(Cl)cc4[nH]ncc34)cc2C1 | > 99.5 µM | > 100 µM |
| CNCc1cccc(NC(=O)c2cc(Cl)cc3[nH]ncc23)c1 | 73.3 µM | > 100 µM |
| Cc1ncc(Br)cc1C(=O)Nc1ccc2c(c1)CNC2 | > 99.5 µM | > 100 µM |
| CN1C(=O)[C@H](c2cc(Cl)cc(NC(=O)OCc3ccccc3)c2)N(c2cccc(-c3nn[nH]n3)c2)C1=O | 21.8 µM | 19 µM |
| CCNCc1ccc(NC(=O)c2cc(Cl)cc3[nH]ncc23)cc1 | > 99.5 µM | > 100 µM |
| Cc1c(C(=O)Nc2cc(C#N)c3ccccc3n2)cc(C2CC2)n1C | > 99.5 µM | > 100 µM |
| N#Cc1cc(C(=O)Nc2ccc3c(c2)CNC3)cc(C(F)(F)F)c1 | > 99.5 µM | > 100 µM |
| CCc1nccn1CC(=O)Nc1ccc2c(c1)CNC2 | > 99.5 µM | > 100 µM |
| O=C(CSc1cccc(Br)c1)Nc1ccc2c(c1)CNC2 | > 99.5 µM | > 100 µM |
| NC(=O)c1[nH]c2ccc(Br)cc2c1Cc1ccc(-c2nnn[nH]2)cc1 | 54.7 µM | 26.8 µM |
| Cc1oc(C2CC2)nc1C(=O)Nc1cc(CCCN)ccn1 | > 99.5 µM | > 100 µM |
